Consider 11 compounds from patent US20250179000A1 (Sanford Burnham Prebys Medical Discovery Institute, priority 2021, published 2025).

What all share (assay type): cell-based
One experiment addresses T1, Rat mGlu2 (Rattus norvegicus, UniProt P31421).
T1 construct: expressed in transfected cells; host or cells: HEK-293 co-expressing GIRK channels
The experiment can be described thus: mGlu receptor in vitro assay, thallium flux through GIRK channels, rat mGlu2. Particulars: PAM potency with EC20 glutamate. Put shortly:
(§1)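 HEK-293 cells co-expressing rat mGlu2 or mGlu3 and GIRK, dye-loaded with FluoZin2-AM, compound added about 2.5 min before thallium buffer with EC20 glutamate; potency from the 5-15 s fluorescence slope, 10-point 4-parameter fit. Calcium assay at mGlu3 used TREx293 mGlu3 Gα15 cells induced with tetracycline 20 ng/mL for 20 h.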

The target in a further experiment is T2, Rat mGlu3 (Rattus norvegicus, UniProt P31422).
T2 construct: expressed in transfected cells; host or cells: HEK-293 co-expressing GIRK channels
The experiment can be described thus: mGlu receptor in vitro assay (thallium flux through GIRK channels / calcium assay), rat mGlu3. As to conditions: PAM potency with EC20 glutamate. The essentials:
as §1

The target in another experiment is Human mGlu2 (Homo sapiens, UniProt Q14416). The experiment can be described thus: mGlu receptor in vitro assay, human mGlu2.
In the next experiment the target is Human mGlu3 (Homo sapiens, UniProt Q14832). The experiment in a line: mGlu receptor in vitro assay, human mGlu3. The protocol: Human Embryonic Kidney (HEK-293) cell lines co-expressing rat mGlu receptors 2, 3, 4, 6, 7 or 8 and G protein-coupled inwardly-rectifying potassium (GIRK) channels were grown in Growth Media containing 45% DMEM, 45% F-12, 10% FBS, 20 mM HEPES, 2 mM L-glutamine, antibiotic/antimycotic, non-essential amino acids, 700 μg/mL G418, and 0.6 μg/ml puromycin at 37° C. in the presence of 5% CO2. […] All cell culture reagents were purchased from Invitrogen Corp. (Carlsbad, CA) unless otherwise noted. Calcium assays were used to assess activity of compounds at mGlu1 and mGlu5, as previously described in Engers et al (J. Med. Chem. 2009, 52, 4115-4118). Calcium assays at mGlu3 were performed as described for mGlu5 with the exception that TREx293 mGlu3 Gα15 cells were treated with tetracycline at 20 ng/mL for 20 h prior to assay.
Briefly, cells were plated into 384-well, black-walled, clear-bottomed poly-D-lysine-coated plates at a density of 15,000 cells/20 μL/well in DMEM containing 10% dialyzed FBS, 20 mM HEPES, and 100 units/mL penicillin/streptomycin (assay media). Plated cells were incubated overnight at 37° C. in the presence of 5% CO2. The following day, the medium was exchanged from the cells to assay buffer [Hanks' balanced salt solution (Invitrogen) containing 20 mM HEPES, pH 7.3] using an ELX405 microplate washer (BioTek), leaving 20 μL/well, followed by the addition of 20 μL/well FluoZin2-AM (330 nM final concentration) indicator dye (Invitrogen; prepared as a stock in DMSO and mixed in a 1:1 ratio with Pluronic acid F-127) in assay buffer. Cells were incubated for 1 h at room temperature, and the dye exchanged to assay buffer using an ELX405, leaving 20 μL/well. Test compounds were diluted to 2 times their final desired concentration in assay buffer (0.3% DMSO final concentration). Agonists were diluted in thallium buffer [125 mM sodium bicarbonate (added fresh the morning of the experiment), 1 mM magnesium sulfate, 1.8 mM calcium sulfate, 5 mM glucose, 12 mM thallium sulfate, and 10 mM HEPES, pH 7.3] at 5 times the final concentration to be assayed. Cell plates and compound plates were loaded onto a kinetic imaging plate reader (FDSS 6000 or 7000; Hamamatsu Corporation, Bridgewater, NJ). Appropriate baseline readings were taken (10 images at 1 Hz; excitation, 470±20 nm; emission, 540±30 nm) and test compounds were added in a 20 μL volume and incubated for approximately 2.5 min before the addition of 10 μL of thallium buffer with or without agonist. After the addition of agonist, data were collected for approximately an additional 2.5 min. Data were analyzed using Excel (Microsoft Corp, Redmond, WA). The slope of the fluorescence increase beginning 5 s after thallium/agonist addition and ending 15 s after thallium/agonist addition was calculated, corrected to vehicle and maximal agonist control slope values, and plotted in using either XLfit (ID Business Solutions Ltd) or Prism software (GraphPad Software, San Diego, CA) to generate concentration-response curves. Potencies were calculated from fits using a four-point parameter logistic equation. For concentration-response curve experiments, compounds were serially diluted 1:3 into 10-point concentration response curves and were transferred to daughter plates using an Echo acoustic plate reformatter (Labcyte, Sunnyvale, CA). Test compounds were applied and followed by EC20 concentrations of glutamate.

A word on the EC50: it is the concentration at which the effect is half-maximal.

Human mGlu2, sequence (Q14416 19-872): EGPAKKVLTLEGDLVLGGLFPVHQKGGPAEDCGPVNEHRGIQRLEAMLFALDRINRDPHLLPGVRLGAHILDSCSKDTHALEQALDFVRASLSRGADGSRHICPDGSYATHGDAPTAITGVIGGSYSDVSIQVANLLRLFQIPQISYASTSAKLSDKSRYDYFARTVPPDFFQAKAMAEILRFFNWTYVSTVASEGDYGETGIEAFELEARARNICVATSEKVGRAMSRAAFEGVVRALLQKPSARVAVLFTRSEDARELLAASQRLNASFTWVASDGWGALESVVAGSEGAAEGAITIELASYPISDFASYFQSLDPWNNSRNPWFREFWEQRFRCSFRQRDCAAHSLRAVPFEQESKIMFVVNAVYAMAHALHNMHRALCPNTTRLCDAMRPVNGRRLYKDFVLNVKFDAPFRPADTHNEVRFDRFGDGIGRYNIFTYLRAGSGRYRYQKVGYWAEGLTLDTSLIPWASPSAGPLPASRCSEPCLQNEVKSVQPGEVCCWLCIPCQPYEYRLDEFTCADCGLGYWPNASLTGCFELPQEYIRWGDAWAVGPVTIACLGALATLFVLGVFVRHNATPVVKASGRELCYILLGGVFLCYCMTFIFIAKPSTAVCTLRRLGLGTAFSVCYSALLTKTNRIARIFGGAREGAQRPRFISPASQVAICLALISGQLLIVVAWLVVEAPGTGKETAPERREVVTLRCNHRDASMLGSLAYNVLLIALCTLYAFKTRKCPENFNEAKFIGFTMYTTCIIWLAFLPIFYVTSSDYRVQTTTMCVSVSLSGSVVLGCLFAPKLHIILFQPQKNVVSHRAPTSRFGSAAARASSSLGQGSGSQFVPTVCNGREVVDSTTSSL
Human mGlu3, sequence (Q14832 23-879): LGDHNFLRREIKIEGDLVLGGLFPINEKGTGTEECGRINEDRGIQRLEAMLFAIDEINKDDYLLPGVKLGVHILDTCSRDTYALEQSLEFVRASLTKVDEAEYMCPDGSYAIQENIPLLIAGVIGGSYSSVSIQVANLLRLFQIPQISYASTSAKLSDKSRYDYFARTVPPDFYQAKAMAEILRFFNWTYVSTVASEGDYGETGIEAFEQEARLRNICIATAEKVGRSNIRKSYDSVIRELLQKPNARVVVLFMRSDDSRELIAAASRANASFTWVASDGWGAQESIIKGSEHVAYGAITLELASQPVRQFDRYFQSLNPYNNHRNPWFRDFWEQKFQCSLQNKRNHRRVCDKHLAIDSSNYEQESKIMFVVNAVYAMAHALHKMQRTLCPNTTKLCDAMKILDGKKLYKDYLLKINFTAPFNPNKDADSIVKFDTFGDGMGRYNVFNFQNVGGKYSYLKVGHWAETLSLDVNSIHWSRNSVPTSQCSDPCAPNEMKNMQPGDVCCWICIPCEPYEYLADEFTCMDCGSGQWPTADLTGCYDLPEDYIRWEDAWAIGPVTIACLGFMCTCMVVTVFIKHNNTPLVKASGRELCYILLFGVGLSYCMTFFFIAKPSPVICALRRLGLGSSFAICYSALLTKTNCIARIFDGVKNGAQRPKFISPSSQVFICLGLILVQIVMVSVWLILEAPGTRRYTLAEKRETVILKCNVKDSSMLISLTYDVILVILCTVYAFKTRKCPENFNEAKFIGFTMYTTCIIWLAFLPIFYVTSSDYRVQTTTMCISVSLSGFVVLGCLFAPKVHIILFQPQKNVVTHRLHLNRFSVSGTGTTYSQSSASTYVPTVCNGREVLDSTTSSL
T1 sequence (P31421 19-872): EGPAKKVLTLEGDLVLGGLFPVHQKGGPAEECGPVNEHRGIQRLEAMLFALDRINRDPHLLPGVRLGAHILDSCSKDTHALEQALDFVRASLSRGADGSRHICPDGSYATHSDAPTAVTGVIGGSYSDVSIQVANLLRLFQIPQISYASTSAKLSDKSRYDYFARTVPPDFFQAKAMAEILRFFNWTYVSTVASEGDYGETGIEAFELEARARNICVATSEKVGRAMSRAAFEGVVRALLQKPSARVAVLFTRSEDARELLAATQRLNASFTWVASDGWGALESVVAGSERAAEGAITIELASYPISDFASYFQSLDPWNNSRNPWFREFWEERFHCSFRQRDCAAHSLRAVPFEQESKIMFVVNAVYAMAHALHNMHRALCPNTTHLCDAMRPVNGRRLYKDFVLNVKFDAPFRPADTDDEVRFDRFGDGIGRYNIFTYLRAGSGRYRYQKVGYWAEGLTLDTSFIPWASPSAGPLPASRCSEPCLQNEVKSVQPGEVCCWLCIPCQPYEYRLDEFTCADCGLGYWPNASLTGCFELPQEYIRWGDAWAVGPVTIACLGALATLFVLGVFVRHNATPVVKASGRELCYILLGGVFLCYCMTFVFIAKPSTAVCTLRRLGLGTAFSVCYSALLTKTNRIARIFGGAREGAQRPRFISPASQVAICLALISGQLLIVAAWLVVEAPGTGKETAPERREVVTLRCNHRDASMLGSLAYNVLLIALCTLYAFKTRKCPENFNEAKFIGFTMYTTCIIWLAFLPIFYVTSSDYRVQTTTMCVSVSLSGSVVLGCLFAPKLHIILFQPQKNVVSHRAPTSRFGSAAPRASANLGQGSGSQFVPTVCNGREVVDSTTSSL
T2 sequence (P31422 23-879): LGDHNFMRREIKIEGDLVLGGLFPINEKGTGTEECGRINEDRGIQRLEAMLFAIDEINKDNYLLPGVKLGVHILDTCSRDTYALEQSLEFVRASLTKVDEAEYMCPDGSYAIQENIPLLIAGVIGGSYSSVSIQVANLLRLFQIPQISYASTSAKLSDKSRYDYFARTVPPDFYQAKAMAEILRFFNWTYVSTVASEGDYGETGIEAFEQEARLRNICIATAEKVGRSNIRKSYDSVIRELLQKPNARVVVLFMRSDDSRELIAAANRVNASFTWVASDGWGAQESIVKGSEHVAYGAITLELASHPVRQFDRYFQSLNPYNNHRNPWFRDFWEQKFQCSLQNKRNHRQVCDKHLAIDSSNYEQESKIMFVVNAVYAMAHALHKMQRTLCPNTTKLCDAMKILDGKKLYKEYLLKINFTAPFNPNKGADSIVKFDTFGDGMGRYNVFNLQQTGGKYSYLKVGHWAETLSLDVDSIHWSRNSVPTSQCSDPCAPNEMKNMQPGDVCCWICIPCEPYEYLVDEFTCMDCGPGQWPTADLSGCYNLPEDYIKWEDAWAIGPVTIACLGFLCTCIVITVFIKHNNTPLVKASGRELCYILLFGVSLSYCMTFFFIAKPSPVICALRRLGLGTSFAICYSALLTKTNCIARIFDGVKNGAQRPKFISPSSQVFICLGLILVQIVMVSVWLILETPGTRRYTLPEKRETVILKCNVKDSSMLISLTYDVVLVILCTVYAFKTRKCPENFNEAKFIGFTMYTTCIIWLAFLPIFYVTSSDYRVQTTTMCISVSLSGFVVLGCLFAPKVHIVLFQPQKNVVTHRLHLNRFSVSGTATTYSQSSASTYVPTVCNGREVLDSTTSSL

On to `CCCC(=O)c1ccc(OC/C=C/COc2ccc(C(=O)O)c(Cl)c2)c(C)c1O` [Example 44, 4-[(2E)-4-(4-Butanoyl-3-hydroxy-2-methylphenoxy)but-2-enyloxy]-2-chlorobenzoic acid], for which the EC50 stood at 44 nM on Rat mGlu2, 1030 nM at Rat mGlu3, 20 nM at Human mGlu2 and 1130 nM on Human mGlu3.
With `CCCC(=O)c1ccc(OCCCCCOc2ccc(C(=O)O)c(F)c2)c(C)c1O` [Example 45, 4-[5-(4-Butanoyl-3-hydroxy-2-methylphenoxy)pentyloxy]-2-fluorobenzoic acid], the concentration for a half-maximal effect (EC50) amounted to 66 nM at Rat mGlu2, 1090 nM on Rat mGlu3, 13 nM on Human mGlu2 and 943 nM on Human mGlu3.
Turning to `[2H]C([2H])(CCCC([2H])([2H])Oc1ccc(C(=O)CCC)c(O)c1C)Oc1ccc(C(=O)O)cc1OC` [Example 51, 4-((5-(4-Butyryl-3-hydroxy-2-methylphenoxy)pentyl-1,1,5,5-d4)oxy)-3-methoxybenzoic acid], the EC50 at Rat mGlu2 is 22 nM; at Rat mGlu3 it was 2380 nM; on Human mGlu2, 9 nM; at Human mGlu3, greater than 30000 nM.
On the same counts, the results for `Cc1c(OCCCCCOc2ccc(C(=O)O)c(Cl)c2)ccc(C(=O)CC(C)C)c1O` [Example 46, 2-Chloro-4-{5-[3-hydroxy-2-methyl-4-(3-methylbutanoyl)phenoxy]pentyloxy}benzoic acid] are 39 nM, 427 nM, 12 nM and 414 nM.
On the same counts, the results for `COc1ccc(C(=O)O)cc1OCCNCCOc1ccc(C(=O)CC(C)(C)C)c(O)c1C` [Example 26, 3-[2-({2-[4-(3,3-Dimethylbutanoyl)-3-hydroxy-2-methylphenoxy]ethyl}amino)ethoxy]-4-methoxybenzoic acid] are 2160 nM, 4090 nM, 156 nM and 1620 nM.
For `Cc1c(OCc2cnc(-c3ccc(Cl)c(C(=O)O)c3)cn2)ccc(C(=O)CC(C)(C)C)c1O` [compound 138, 2-Chloro-5-(5-((4-(3,3-Dimethylbutanoyl)-3-hydroxy-2-methylphenoxy)methyl)pyrazin-2-yl)benzoic acid], the half-maximal effective concentration (EC50) on Human mGlu2 was determined as 445 nM; on Human mGlu3, 104 nM.
On the same counts, the results for `Cc1c(OCc2cccc(-c3cccc(C(=O)O)c3)c2)ccc(C(=O)c2ccc(F)cc2)c1O` [compound 74, 3′-((4-(4-Fluorobenzoyl)-3-hydroxy-2-methylphenoxy)methyl)-[1,1′-biphenyl]-3-carboxylic acid] are 924 nM and 1650 nM.
On the same counts, the results for `COc1c(C(=O)O)cccc1-c1cnc(COc2ccc3c(c2C)OC(C)(C)CC3=O)cn1` [compound 147, 2-Methoxy-3-(5-(((2,2,8-trimethyl-4-oxochroman-7-yl)oxy)methyl)pyrazin-2-yl)benzoic acid] are greater than 30000 nM and greater than 30000 nM.
On the same counts, the results for `Cc1cc(C(=O)O)ccc1-c1cnc(COc2ccc(C(=O)CC(C)(C)C)c(O)c2C)cn1` [compound 144, 4-(5-{[4-(3,3-Dimethylbutanoyl)-3-hydroxy-2-methylphenoxy]methyl}pyrazin-2-yl)-3-methylbenzoic acid] are 112 nM and 89 nM.
With `Cc1c(OCc2cnc(-c3ccc(C(=O)O)c(F)c3)cn2)ccc(C(=O)CC(C)(C)C)c1O` [compound 137, 4-(5-((4-(3,3-Dimethylbutanoyl)-3-hydroxy-2-methylphenoxy)methyl)pyrazin-2-yl)-2-fluorobenzoic acid], the 50% effective concentration (EC50) came out at 913 nM on Human mGlu2 and 3950 nM on Human mGlu3.
On the same counts, the results for `COc1cc(C(=O)O)cc(-c2cnc(COc3ccc(C(=O)CC(C)(C)C)c(O)c3C)cn2)c1` [compound 129, 3-(5-((4-(3,3-Dimethylbutanoyl)-3-hydroxy-2-methylphenoxy)methyl)pyrazin-2-yl)-5-methoxybenzoic acid] are 729 nM and 364 nM.
